One assay has as its target T1, NAALADase (Homo sapiens, UniProt Q04609).
T1 construct: from tissue; host or cells: unspecified "tissue"
Briefly: In vitro inhibition of NAALADase activity. Format: biochemical. The settings on record: average IC50 values. As to the method:
Various compounds of the invention were tested for in vitro inhibition of NAALADase activity.
The following were combined in assay tubes: 100 μL of 10 mM CoCl2, 250 μof 200 mM Tris chloride, 100 μL tissue, 100 μL of 10 mM NAALADase inhibitor in Bakers H2O, and Bakers H2O to make a total volume of 950 μL. Each assay tube was then incubated for 10 minutes in a 37 EC water bath. […] The assay was stopped by adding 1.0 ml of 0.1 M sodium phosphate.
Glutamate released by the action of the NAALADase enzyme was separated from the assay solution using an anion exchange resin. The resin was equilibrated to 25 EC, 2.0 ml of the resin was added to a Pasteur pipette pre-loaded with a single glass bead, and each column was washed twice with distilled H2O. A column was placed over a scintillation vial and 200 μL of an assay sample was loaded onto the column. After draining, glutamate was eluted using two 1.0 ml washes of 1 M formic acid. After addition of 10 ml of scintillation cocktail, each sample was counted for 2 minutes on a scintillation counter.

For assay [1], the system named is STZ-diabetic rats. In words: Reversal of diabetic neuropathy in STZ model, delayed dosing. Format: in vivo, rat. The settings on record: for neuropathic hyperalgesia / motor nerve conduction velocity: daily p.o.; for neuropathic hyperalgesia: treatment from 5 weeks post STZ, within two weeks of treatment; for motor nerve conduction velocity: within 8 weeks of dosing, persisted through 12 weeks. As to the method:
Rats (200–225 grams) were injected with STZ (70 mg/kg) into the tail vein. Diabetes (>350 mg/dl) was confirmed in all rats, 4 weeks after STZ administration. Rats were left untreated until 35–49 days after STZ. Compound D (1, 3, or 10 mg/kg), Compound E (10 mg/kg), or vehicle were dosed daily p.o. following confirmation of hyperalgesia and/or nerve conduction velocity deficits. In separate experiments, onset of treatment was delayed until 60 to 90 days after STZ administration. Nerve conduction velocity or withdrawal response to thermal stimulation of hind paws was measured at intervals, usually bi-weekly for thermal response and monthly for nerve conduction velocity.
Sensory and motor nerve conduction velocities were evaluated using the method of De Koning and Gispen (Peptides 8: 415–422, 1987). Electrophysiological evaluation was carried out within one hour of dosing. Animals were anesthetized with isoflurane and stimulating needle electrodes were inserted close to the sciatic nerve at the sciatic notch and the tibial nerve near the ankle. Recording electrodes were placed over the foot muscles. Stimuli were applied and responses recorded. Motor and sensory nerve conduction velocities were calculated by measuring the distance between the sciatic notch and ankle sites, and the latency between the M-wave and the H-reflex.
Animals were acclimated to the apparatus for at least 5 min. An infra-red source was placed under below the plantar surface of the rat hind-paw. The intensity of the source was adjusted so that latency for normal rats was about 10 secs. Animals were tested for thermal response latency according to the method of Hargreaves et al (Pain 77–88, 1988). Each animal was tested 8 times (4 each hind limb) and the latency of response recorded automatically to nearest 0.1 sec. An average of the last 4 measurements for each paw was calculated (8 total measurements) and noted for each rat.

Assay [2] has as its system STZ-diabetic rats. Briefly: Neuropathic pain in STZ model (thermal withdrawal latency). Format: in vivo, rat. Conditions: 10 mg/kg i.p. daily, treatment from 45 days post STZ. The method, then:
Male Sprague-Dawley rats (200–225 g) were rendered diabetic by intravenous administration of streptozotocin (“STZ”, 70 mg/kg in phosphate buffered saline). Diabetic animals were divided into five groups: one group receiving Compound A (10 mg/kg or 1 mg/kg), Compound D (10 mg/kg or 1 mg/kg) or vehicle. Another group of animals (non-STZ treated) served as non-diabetic controls. Drug/vehicle treatment was started in diabetic animals 45 days post-STZ administration. STZ-induced diabetic rats were tested for sensitivity to a heat source as soon as blood glucose levels rose to 320 mg/dl or above (30 days post STZ). The rats were then acclimated to a Hargreaves apparatus and thermal nociception was monitored using an infrared heat source directed into the dorsal surface of the hindpaw, and the time taken for the animal to remove its paw noted to the nearest 0.1 seconds (see Hargreaves et al., supra, for detailed experimental method). The intensity of the beam source was adjusted such that the mean latency for control animals (non-STZ treated) was approximately 10 seconds. Each animal was tested 8 times and the mean difference score (between mean non-diabetic control latency and mean diabetic latency) are graphically presented in FIGS. 7A and 7B.

The next assay has as its system BB/W diabetic rats. In words: Progression of neuropathic pain and nerve conduction deficits in BB/W model. The format is in vivo, rat. From the text:
Male BB/W rats (BRI, Mass) spontaneously develop a cell mediated autoimmune destruction of pancreatic B cells, resulting in onset of insulin-dependent (Type I) diabetes (Guberski 1994). […] This renders them valuable for experimental trials of new compounds for future treatments of this major disorder. In the present study, Compound D and Compound A were examined for their ability to alter the progression of diabetic neuropathy. The rats received daily injection of Compound D or Compound A (10 mg/kg i.p.) or vehicle, starting at the onset of diabetes (hyperglycemia) and up to 6 months thereafter. Another group of non-diabetic rats also receiving vehicle were tested. All animals were continuously monitored for body weight, urine volume, blood sugar and glycated haemoglobin. In the first month of the study, all animals were tested for thermal nociception in a Hargreaves apparatus, weekly. After the first month this was done biweekly and then monthly. The testing consists of directing an infrared heat source onto the dorsal surface of the rat hindpaw and noting the time taken for the animal to remove its paw (see Hargreaves et al., supra, for a description of the experimental method). Each animal was tested 8 times and the mean withdrawal latency noted.
Nerve conduction velocity was also measured every two weeks through the first eight weeks of treatment and every month thereafter through to the six months of treatment (see De Koning et al., Peptides, Vol. 8, No. 3, pp. 415–22 (1987) for a description of the experimental method). […] This was apparent starting at 8 weeks of treatment and persisted to a similar degree through to the six month termination point of the study.

Assay [3] relates to STZ-diabetic rats. In words: Diabetic neuropathy in STZ model (nerve conduction velocity). The format is in vivo, rat. The method, then: Motor and sensory nerve conduction velocity was also measured in STZ-diabetic animals after 4, 8 and 12 weeks of treatment (see De Koning et al., supra, for a description of the experimental method). Briefly, stimulating needle electrodes were inserted close to the sciatic and tibial nerves with recording electrodes being placed subcutaneously over the distal foot muscles, in anesthetized rats.

T1 sequence (Q04609 whole entry): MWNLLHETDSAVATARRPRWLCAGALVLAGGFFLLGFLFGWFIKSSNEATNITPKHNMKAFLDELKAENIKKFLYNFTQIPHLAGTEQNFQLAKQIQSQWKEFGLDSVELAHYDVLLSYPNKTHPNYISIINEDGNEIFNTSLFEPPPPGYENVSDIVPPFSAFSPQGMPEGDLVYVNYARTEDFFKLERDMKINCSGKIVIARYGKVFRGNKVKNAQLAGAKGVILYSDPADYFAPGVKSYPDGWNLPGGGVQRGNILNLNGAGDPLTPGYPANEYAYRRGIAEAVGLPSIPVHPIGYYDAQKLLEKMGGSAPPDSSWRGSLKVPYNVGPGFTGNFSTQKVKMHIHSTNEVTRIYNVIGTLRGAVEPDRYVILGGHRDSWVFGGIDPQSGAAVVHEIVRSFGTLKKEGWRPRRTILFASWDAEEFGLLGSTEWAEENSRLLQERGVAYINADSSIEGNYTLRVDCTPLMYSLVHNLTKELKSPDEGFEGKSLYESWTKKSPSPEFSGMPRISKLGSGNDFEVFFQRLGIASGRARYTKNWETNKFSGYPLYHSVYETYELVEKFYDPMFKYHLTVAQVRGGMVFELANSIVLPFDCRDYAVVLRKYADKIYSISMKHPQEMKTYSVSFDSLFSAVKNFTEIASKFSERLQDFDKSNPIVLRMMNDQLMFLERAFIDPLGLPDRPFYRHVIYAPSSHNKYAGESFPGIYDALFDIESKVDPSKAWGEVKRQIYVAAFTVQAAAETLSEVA

For orientation: IC50 means the concentration at which inhibition is half-maximal. Read a high IC50 as lower potency. On NAALADase, `O=C(O)c1c(CCS)c2ccccc2n1-c1ccccc1` [Compound 11, 3-(2-mercaptoethyl)-1-phenyl-1H-indole-2-carboxylic acid] showed a half-maximal inhibitory concentration (IC50) of 4740 nM. The compound `O=C(O)c1ccccc1Cn1c(C(=O)O)c(CCS)c2ccccc21` [Compound 7, 1-[(2-carboxyphenyl)methyl]-3-(2-mercaptoethyl)-1H-indole-2-carboxylic acid] showed an IC50 at NAALADase of 18.5 nM. Still for that read-out and setting: as for `O=C(O)c1c(CCS)c2ccccc2n1CCc1ccccc1` [Compound 12, 3-(2-mercaptoethyl)-1-(2-phenylethyl)-1H-indole-2-carboxylic acid], the figure is 44000 nM. On the same count and under the same terms, as for `O=C(O)c1[nH]c2c(C(=O)O)cccc2c1CCS` [Compound 2, 3-(2-mercaptoethyl)-1H-indole-2,7-dicarboxylic acid], the figure is 760 nM.

With `O=C(O)CCC(CCS)C(=O)O` (stereo not shown) [Compound D, 2-(2-sulfanylethyl)-pentanedioic acid], the “sensory and motor nerve conduction velocity deficits” value in the assay on STZ-diabetic rats [1] (STZ rats untreated until 60 days after STZ, external CRO) was “Partial reversal”. Also, the neuropathic pain abnormalities entry in the assay on STZ-diabetic rats [1] (STZ rats, 1 and 3 mg/kg, treatment from 7 weeks post STZ) is “Significant reduction”. For the same compound, the motor nerve conduction result in the assay on STZ-diabetic rats [1] (STZ rats, 1 and 3 mg/kg, treatment from 7 weeks post STZ, 8 weeks after dosing) is listed as “remained unimproved”. Moreover, the sensory nerve conduction entry in the assay on STZ-diabetic rats [1] (STZ rats, 1 and 3 mg/kg, treatment from 7 weeks post STZ, within 4 weeks of treatment) is recorded as “significantly improved towards normal”. Moreover, in the assay on STZ-diabetic rats [1] (STZ rats), the neuropathic hyperalgesia result is reported as “reversed towards normal”. For the same compound, the “motor nerve conduction velocity” value with STZ-diabetic rats [1] (STZ rats) is given as “reversed the motor nerve conduction velocity towards normal”. In the assay with STZ-diabetic rats [2], the “hyperalgesic response (withdrawal latency difference score)” value is “completely reversed”. The “nerve conduction velocity deficits versus diabetic vehicle controls” value in the assay on BB/W diabetic rats (10 mg/kg daily, from 8 weeks to six months) is listed as “significantly less severe nerve conduction deficits”. Further, in the assay on BB/W diabetic rats (10 mg/kg i.p. daily, from 4 weeks through six months of treatment), the “withdrawal latency versus diabetic vehicle-treated rats” value is “longer withdrawal latencies”. For the same compound, the “motor and sensory nerve conduction velocities” value is reported as “increased” in the assay on STZ-diabetic rats [3] (1 mg/kg); “increased” in the assay on STZ-diabetic rats [3] (10 mg/kg daily, 4, 8 and 12 weeks). On NAALADase, `O=C(O)c1cccc(Cn2c(C(=O)O)c(CCS)c3ccccc32)c1` [Compound 3, 1-[(3-carboxyphenyl)methyl]-3-(2-mercaptoethyl)-1H-indole-2-carboxylic acid] displayed an IC50 of 55.3 nM.

Compound `COc1ccc(C(=O)O)c(Cn2c(C(=O)O)c(CCS)c3ccccc32)c1` [Compound 10, 1-[(2-carboxy-5-methoxyphenyl)methyl]-3-(2-mercaptoethyl)-1H-indole-2-carboxylic acid] displayed an IC50 against NAALADase of 12 nM. Still for that read-out and setting: the figure for `O=C(O)c1cc(Cn2c(C(=O)O)c(CCS)c3ccccc32)ccc1Br` [Compound 9, 1-[(4-bromo-3-carboxyphenyl)methyl]-3-(2-mercaptoethyl)-1H-indole-2-carboxylic acid] is 104 nM; for `O=C(O)c1[nH]c2ccccc2c1CCS` [Compound 1, 3-(2-mercaptoethyl)-1H-indole-2-carboxylic acid] it is 1240 nM. `CC(C)(C)c1cc(Cn2c(C(=O)O)c(CCS)c3ccccc32)cc(C(=O)O)c1` [Compound 8, 1-[[3-carboxy-5-(1,1-dimethylethyl)-phenyl]methyl]-3-(2-mercaptoethyl)-1H-indole-2-carboxylic acid]: the half-maximal inhibitory concentration (IC50) on NAALADase turned out to be 35 nM. Take `O=C(O)c1ccc(Br)c(Cn2c(C(=O)O)c(CCS)c3ccccc32)c1` [Compound 4, 1-[(2-bromo-5-carboxyphenyl)methyl]-3-(2-mercaptoethyl)-1H-indole-2-carboxylic acid]: the 50% inhibitory concentration (IC50) on NAALADase was determined as 54.3 nM. Turning to `O=C(O)c1cccc(CC(CCCS)C(=O)O)c1` (stereo not drawn) [Compound E, 3-carboxy-alpha-(3-mercaptopropyl)benzenepropanoic acid], in the assay with STZ-diabetic rats [1] (STZ rats), the neuropathic hyperalgesia entry is given as “reversed towards normal” and the “motor nerve conduction velocity” value is listed as “reversed the motor nerve conduction velocity towards normal”.

In turn, `O=C(O)c1ccc(Cn2c(C(=O)O)c(CCS)c3ccccc32)cc1` [Compound 5, 1-[(4-carboxyphenyl)methyl]-3-(2-mercaptoethyl)-1H-indole-2-carboxylic acid] returned an IC50 at NAALADase of 66.5 nM.

Take `O=C(O)c1c(CCS)c2ccccc2n1Cc1ccccc1` [Compound 6, 3-(2-mercaptoethyl)-1-(phenylmethyl)-1H-indole-2-carboxylic acid]: the IC50 at NAALADase was 12100 nM.

(Values after US7148250B2, “Indoles as NAALADase inhibitors” (Guilford Pharmaceuticals Inc., priority 2001, dated 2006).)
